Reference: US12636278B2, “HDAC6-inhibited human regulatory T cells” (H. LEE MOFFITT CANCER CENTER AND RESEARCH INSTITUTE, INC., priority 2020, dated 2026)
“Also recorded” adds a separate entry of the source.

Columns and labels:
[1] = system: NSG mice with human skin xenograft; assay: Human skin xenograft rejection model with adoptive transfer of pre-treated Tregs; format: in vivo; details: day +21; 5x10^4 nTregs expanded ex vivo with drug (tubastatin 1 μM, HDTK032 2.5 μM); no systemic drug; compared to PBMCs alone
Experimental: NSG mice received a 1 cm^2 split thickness human skin graft. After 30 days of rest to permit engraftment, 5×10^6 human PBMCs (allogeneic to the skin) were injected into the mice. A week prior to PBMC injection, Tregs from the PBMC donor were expanded with mature DCs from the skin donor (Treg:DC ratio 30:1) and cultured for 5-6 days in the presence of DMSO (<0.1%), tubastatin (1 μM), HDTK032 (2.5 μM). In coordination with the PBMC injection, recipient mice were also inoculated with CD25-bead purified, Tregs (5×10^4) expanded with DMSO, tubastatin, HDTK032. A control group received PBMCs alone. FIG. 3A contains representative contour plots showing the purity (>95% pure) of the injected Tregs (CD4^+, CD127^−, CD25^bright, Foxp3+) for each experimental condition. […] Pooled data from 3 independent experiments, with up to 9 mice per experimental group. […]
FIGS. 5A to 5D show pathogenic Th17 cells are decreased in the periphery among mice treated with HDAC6-inhibited human Tregs. […] Recipient spleens were harvested on day +21, stained for Th17s (CD4^+, IL-17^+) or Tregs (CD4^+, CD127^−, CD25^bright, Foxp3^+), and analyzed by flow cytometry. […]
FIGS. 6A to 6C show circulating human Th1 cells are reduced after adoptive transfer of HDAC6-inhibited Tregs. […] Recipient spleens were harvested on day +21, stained for Th1s (CD4^+, IFNγ^+) or Th2s (CD4^+, IL-4^+), and analyzed by flow cytometry. […]

[2] = system: T cell responders stimulated by allogeneic DCs; assay: Suppression assay of pre-treated nTregs in mixed leukocyte reactions; format: cell-based, human; details: nTregs exposed to drug for 5 days; nTreg:T cell ratio 1:500 or 1:50; no drug in secondary culture; compared to DMSO-treated nTregs
Experimental: The suppressive capacity of DC-allostimulated thymic Tregs previously exposed to HDTK032, tubastatin, or DMSO was tested at different ratios of Treg to T cell responders stimulated by fresh allogeneic DCs (DC:responder T cell ratio of 1:30) in mixed leukocyte reactions. No additional drugs or DMSO were added to the medium. […] Data are from one representative experiment of 3 independent studies performed.
Next we investigated whether HDAC6 blockade impacted nTreg function. Purified nTregs were stimulated with allogeneic moDCs plus IL-2 while exposed to tubastatin, HDTK032, or DMSO for 5 days. The nTregs were harvested and cultured with autologous T cells (nTreg:T cell ratio 1:500 or 1:50) targeting fresh allogeneic moDCs. No additional drugs were added to the secondary cultures.

HDAC6 = assay: On-target alpha-tubulin acetylation in treated nTregs; format: cell-based, human; details: compared to DMSO
Experimental: (§1) FIG. 1A show purified, human Tregs stimulated by allogeneic, monocyte-derived dendritic cells for 5-6 days, with HDTK032 or DMSO added once on day 0. The medium was also supplemented with IL-2 and IL-15. […] Proliferation was analyzed by Cell Trace Violet dilution among CD4^+, CD127^−, CD25^bright Tregs. […] FIG. 1C is a graph showing on-target alpha-tubulin acetylation of HDTK032 or DMSO treated Tregs. One representative experiment of 3 independent studies is shown. […] One representative donor Treg expansion of 4 independent experiments is shown. *P<0.05.
(§2) HDAC6-deficient mice are known to generate increased amounts of Tregs, both at stead-state in vivo and after polyclonal stimulation in vitro. However, such findings have never been translated to human immunity. Human nTregs (CD4^+, CD127^−, CD25+) were purified by magnetic bead isolation, stimulated with allogeneic moDCs, supplemented with IL-2, and treated with HDTK032, a selective and potent HDAC6 inhibitor, or DMSO (<0.01%) vehicle control once on day 0. After 5-6 days of culture, the nTregs were harvested and enumerated. […] Using the limiting dilution assay (LDA) we measured the precise frequency of allo-specific nTregs after stimulation with unrelated moDCs for 12 days. For these experiments, the HDAC6 inhibitors, HDTK032 and tubastatin, were compared against DMSO. […]

[3] = system: human nTregs (CD4+, CD127-, CD25+); assay: Treg proliferation and expansion after stimulation with allogeneic moDCs, 5-6 days; format: cell-based; details: drug added once on day 0, compared to DMSO
Experimental: as §1, §2

allo-specific nTregs = assay: Limiting dilution assay (LDA), frequency of allo-specific nTregs after 12 days with allogeneic moDCs; format: cell-based, human; details: for mean fold expansion of allo-specific nTregs: 12 days with unrelated moDCs, compared to DMSO; for frequency of antigen-specific thymic Tregs: after 12 days of culture with allogeneic moDCs
Experimental: as §1
HDAC6-deficient mice are known to generate increased amounts of Tregs, both at stead-state in vivo and after polyclonal stimulation in vitro. However, such findings have never been translated to human immunity. Human nTregs (CD4^+, CD127^−, CD25+) were purified by magnetic bead isolation, stimulated with allogeneic moDCs, supplemented with IL-2, and treated with HDTK032, a selective and potent HDAC6 inhibitor, or DMSO (<0.01%) vehicle control once on day 0. After 5-6 days of culture, the nTregs were harvested and enumerated. […] Using the limiting dilution assay (LDA) we measured the precise frequency of allo-specific nTregs after stimulation with unrelated moDCs for 12 days. For these experiments, the HDAC6 inhibitors, HDTK032 and tubastatin, were compared against DMSO. Overall, the mean fold expansion was approximately 130-fold with either HDAC6 inhibitor compared to DMSO (FIG. 1D).

autologous T responders = assay: Suppression assay of treated antigen-specific nTreg with 10:1 autologous T responders and allogeneic DCs; format: cell-based; details: 10:1 autologous T responders; proliferation measured on day +6; compared to DMSO
Description: Suppression assay of DMSO- or HDAC-treated, antigen-specific nTreg in culture with 10:1 autologous T responders and allogeneic DCs. Proliferation measured on day +6. […] PAN=Panobinostat, NEXT=Nexturastat-B, TUBA=Tubastatin. DMSO is vehicle control.

antigen-specific nTreg = assay: Proliferation of antigen-specific nTreg with allogeneic DC, IL-2 and IL-15 (CPM, day +6); format: cell-based; details: drugs added once on day 0; CPM on day +6
Description: Purified nTreg+allogeneic dendritic cells (DC)+IL-2+IL-15. Drugs added once on day 0. Proliferation measured as CPM on day +6.

In the case of `O=C(NO)c1ccc2c(c1)OC[C@H](c1ccccc1)N(C(=O)C1CCOCC1)C2` [HDTK032, (3S)—N-hydroxy-4-(oxane-4-carbonyl)-3-phenyl-2,3,4,5-tetrahydro-1,4-benzoxazepine-8-carboxamide], the skin graft rejection [1] is reported as “significantly reduced”, the “suppressive potency of pre-treated nTregs” value [2] is reported as “significantly more potent” and the “amount of acetylated α-tubulin” value (HDAC6) is reported as “increase”. The “proliferative capacity of nTregs (CellTrace Violet dilution)” value ([3]; 5-6 days) was “increased”, the “amount of nTregs” value ([3]; after 5-6 days of culture) was “significantly increased; also recorded: increases” and the “mean fold expansion of allo-specific nTregs” value (allo-specific nTregs) was “approximately 130 fold”. The “frequency of antigen-specific thymic Tregs” value (allo-specific nTregs) was “increase”.

For `CCCCN(Cc1ccc(C(=O)NO)cc1)C(=O)Nc1ccc2cn[nH]c2c1` [Nexturastat-B, Nexturastat B], the “suppressive function of nTreg” value (autologous T responders) was “significantly increase”.

`CN1CCc2c(c3ccccc3n2Cc2ccc(C(=O)NO)cc2)C1` [Tubastatin A, reference compound] was tested, and the skin graft rejection [1] was “significantly reduced”, the “suppressive potency of pre-treated nTregs” value [2] was “significantly more potent” and the “mean fold expansion of allo-specific nTregs” value (allo-specific nTregs) was “approximately 130 fold”. For the same compound, the “frequency of antigen-specific thymic Tregs” value (allo-specific nTregs) was “increase”, the “proliferation and expansion of antigen-specific nTreg” value (antigen-specific nTreg) was “significantly enhance” and the “suppressive function of nTreg” value (autologous T responders) was “significantly increase”.
